Counter-ions that a name gives are not always drawn. Like-named read-outs stand apart in the source and are kept apart here.
What was measured:
[1] = molecular target: recombinant human SOS1 polypeptide (amino acids 560-1049) (Homo sapiens (Human), UniProt Q07889); experiment: biochemical; type: binding; details: read-out: Ki, Inhibition of Labeled Tracer Binding to SOS1
pERK in MKN1 cells = experiment: cells; type: cell-based; details: Homo sapiens
[2] = HTRF displacement, Cy5 labelled tracer, Morrison equation for competitive binding
[3] = MKN-1, pERK inhibition, In-Cell Western, MKN1 or H358 cells (Table 24 does not say which), 0.5-1 hour incubation, read-out: IC50

recombinant human SOS1 polypeptide (amino acids 560-1049), sequence (Q07889 560-1049): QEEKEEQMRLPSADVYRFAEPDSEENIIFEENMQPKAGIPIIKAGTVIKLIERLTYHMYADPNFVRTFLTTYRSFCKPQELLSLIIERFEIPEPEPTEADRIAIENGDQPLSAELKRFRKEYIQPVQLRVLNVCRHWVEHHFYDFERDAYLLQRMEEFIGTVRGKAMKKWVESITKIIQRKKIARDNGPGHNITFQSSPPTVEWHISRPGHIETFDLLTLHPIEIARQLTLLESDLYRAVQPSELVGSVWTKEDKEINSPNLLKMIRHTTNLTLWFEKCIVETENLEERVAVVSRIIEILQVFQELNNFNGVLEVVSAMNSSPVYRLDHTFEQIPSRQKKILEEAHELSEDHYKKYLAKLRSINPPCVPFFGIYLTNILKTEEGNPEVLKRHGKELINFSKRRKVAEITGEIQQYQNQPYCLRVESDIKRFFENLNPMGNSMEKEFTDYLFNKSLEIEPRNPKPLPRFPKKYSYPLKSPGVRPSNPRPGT

Structure (SMILES)	Ki [1, 2] [µM]	IC50 (pERK in MKN1 cells; [3]) [µM]	Ki [1] [µM]	IC50 (pERK in MKN1 cells; MKN-1) [µM]
Cc1c([C@@H](C)Nc2nnc(C)c3ccc(N4CC(O)C4)cc23)cccc1C(F)(F)F [Example 10-48, (R)-1-(1-methyl-4-((1-(2-methyl-3-(trifluoromethyl)phenyl)ethyl)amino)phthalazin-6-yl)azetidin-3-ol]	0.00135	0.075	–	–
Cc1c([C@@H](C)Nc2nnc(C)c3ccc(N4CCC(N5CCC(F)(F)C5)CC4)cc23)cccc1C(F)(F)F [Example 10-49, (R)-7-(4-(3,3-difluoropyrrolidin-1-yl)piperidin-1-yl)-4-methyl-N-(1-(2-methyl-3-(trifluoromethyl)phenyl)ethyl)phthalazin-1-amine Formate salt]	–	–	0.00056	0.107
Cc1nnc(N[C@H](C)c2cc(F)cc(C(F)(F)F)c2)c2cc(N3CCOCC3)ccc12 [Example 10-50, (R)-N-(1-(3-fluoro-5-(trifluoromethyl)phenyl)ethyl)-4-methyl-7-morpholinophthalazin-1-amine]	0.00374	0.205	–	–
Cc1c(C#N)cccc1[C@@H](C)Nc1nnc(C)c2ccc(N3CCOCC3)cc12 [Example 10-51, (R)-2-methyl-3-(1-((4-methyl-7-morpholinophthalazin-1-yl)amino)ethyl)benzonitrile]	0.0014	0.039	–	–
Cc1nnc(N[C@H](C)c2cc(F)cc(C#N)c2)c2cc(N3CCOCC3)ccc12 [Example 10-52, (R)-3-fluoro-5-(1-((4-methyl-7-morpholinophthalazin-1-yl)amino)ethyl)benzonitrile]	0.0445	0.286	–	–
Cc1c(C#N)cccc1[C@@H](C)Nc1nnc(C)c2ccc(N3C[C@H]4C[C@@H]3CO4)cc12 [Example 10-54, 3-((R)-1-((7-((1R,4R)-2-oxa-5-azabicyclo[2.2.1]heptan-5-yl)-4-methylphthalazin-1-yl)amino)ethyl)-2-methylbenzonitrile Formate salt]	–	–	0.00134	0.048
Cc1c(C#N)cccc1[C@@H](C)Nc1nnc(C)c2ccc(N3CCNCC3)cc12 [Example 10-55, (R)-2-methyl-3-(1-((4-methyl-7-(piperazin-1-yl)phthalazin-1-yl)amino)ethyl)benzonitrile Formate salt]	–	–	0.00076	0.076
Cc1c(C#N)cccc1[C@@H](C)Nc1nnc(C)c2ccc(N3CCN4CCOC[C@@H]4C3)cc12 [Example 10-56, 3-((R)-1-((7-((S)-hexahydropyrazino[2,1-c][1,4]oxazin-8(1H)-yl)-4-methylphthalazin-1-yl)amino)ethyl)-2-methylbenzonitrile Formate salt]	–	–	0.00159	0.026
Cc1c(C#N)cccc1[C@@H](C)Nc1nnc(C)c2ccc(N3CCC(N(C)C)CC3)cc12 [Example 10-57, (R)-3-(1-((7-(4-(dimethylamino)piperidin-1-yl)-4-methylphthalazin-1-yl)amino)ethyl)-2-methylbenzonitrile Formate salt]	–	–	0.00075	0.046
Cc1c(C#N)cccc1[C@@H](C)Nc1nnc(C)c2ccc(N3CC(C)(O)C3)cc12 [Example 10-58, (R)-3-(1-((7-(3-hydroxy-3-methylazetidin-1-yl)-4-methylphthalazin-1-yl)amino)ethyl)-2-methylbenzonitrile]	0.00578	0.052	–	–
Cc1nnc(N[C@H](C)c2ccc(F)cc2Cl)c2cc(N3CCOCC3)ccc12 [Example 10-59, (R)-N-(1-(2-chloro-4-fluorophenyl)ethyl)-4-methyl-7-morpholinophthalazin-1-amine Hydrochloride salt]	–	–	0.0309	0.57
Cc1cccc(C(C)Nc2nnc(C)c3ccc(N4CCOCC4)cc23)c1Cl (stereo not drawn) [Example 10-60, N-(1-(2-chloro-3-methylphenyl)ethyl)-4-methyl-7-morpholinophthalazin-1-amine]	0.002	0.961	–	–
Cc1cc([C@@H](C)Nc2nnc(C)c3ccc(N4CCOCC4)cc23)cc(C(F)(F)F)c1 [Example 10-61, (R)-4-methyl-N-(1-(3-methyl-5-(trifluoromethyl)phenyl)ethyl)-7-morpholinophthalazin-1-amine]	0.00161	0.057	–	–
Cc1c([C@@H](C)Nc2nnc(C)c3ccc(N4CCNC[C@H](F)C4)cc23)cccc1C(F)(F)F [Example 10-62, 7-((S)-6-fluoro-1,4-diazepan-1-yl)-4-methyl-N-((R)-1-(2-methyl-3-(trifluoromethyl)phenyl)ethyl)phthalazin-1-amine Hydrochloride salt]	–	–	0.0009	0.076
Cc1c([C@@H](C)Nc2nnc(C)c3ccc(N4CCNC[C@@H](F)C4)cc23)cccc1C(F)(F)F [Example 10-63, 7-((R)-6-fluoro-1,4-diazepan-1-yl)-4-methyl-N-((R)-1-(2-methyl-3-(trifluoromethyl)phenyl)ethyl)phthalazin-1-amine Hydrochloride salt]	–	–	0.00054	0.05
Cc1c([C@@H](C)Nc2nnc(C)c3ccc(N4CCNS(=O)(=O)CC4)cc23)cccc1C(F)(F)F [Example 10-64, (R)-5-(1-methyl-4-((1-(2-methyl-3-(trifluoromethyl)phenyl)ethyl)amino)phthalazin-6-yl)-1,2,5-thiadiazepane 1,1-dioxide]	0.0017	0.513	–	–
Cc1c(C(F)F)cccc1[C@@H](C)Nc1nnc(C)c2ccc(N3CCOCC3)cc12 [Example 10-65, (R)-N-(1-(3-(difluoromethyl)-2-methylphenyl)ethyl)-4-methyl-7-morpholinophthalazin-1-amine Hydrochloride salt]	–	–	0.00095	0.023
Cc1c([C@@H](C)Nc2nnc(C)c3ccc(N4CC(C)(N(C)C)C4)cc23)cccc1C(F)(F)F [Example 10-66, (R)-7-(3-(dimethylamino)-3-methylazetidin-1-yl)-4-methyl-N-(1-(2-methyl-3-(trifluoromethyl)phenyl)ethyl)phthalazin-1-amine]	0.00078	0.108	–	–
Cc1c(C#N)cccc1[C@@H](C)Nc1nnc(C)c2ccc(N3CCC(F)(F)CC3)cc12 [Example 10-67, (R)-3-(1-((7-(4,4-difluoropiperidin-1-yl)-4-methylphthalazin-1-yl)amino)ethyl)-2-methylbenzonitrile]	0.00257	0.044	–	–
Cc1c(C#N)cccc1[C@@H](C)Nc1nnc(C)c2ccc(N3CCC(N4CCC4)CC3)cc12 [Example 10-68, (R)-3-(1-((7-(4-(azetidin-1-yl)piperidin-1-yl)-4-methylphthalazin-1-yl)amino)ethyl)-2-methylbenzonitrile]	0.00075	0.036	–	–
Cc1c(C#N)cccc1[C@@H](C)Nc1nnc(C)c2ccc(N3CC4(CCN(C)C4=O)C3)cc12 [Example 10-69, (R)-2-methyl-3-(1-((4-methyl-7-(6-methyl-5-oxo-2,6-diazaspiro[3.4]octan-2-yl)phthalazin-1-yl)amino)ethyl)benzonitrile]	0.00307	0.039	–	–
Cc1c(C#N)cccc1[C@@H](C)Nc1nnc(C)c2ccc(N3CCN(c4cnn(C)c4)CC3)cc12 [Example 10-70, (R)-2-methyl-3-(1-((4-methyl-7-(4-(1-methyl-1H-pyrazol-4-yl)piperazin-1-yl)phthalazin-1-yl)amino)ethyl)benzonitrile]	0.00089	0.015	–	–
Cc1c(C#N)cccc1[C@@H](C)Nc1nnc(C)c2ccc(N3C[C@H]4CC[C@@H]3CN4C)cc12 [Example 10-71, 2-methyl-3-((R)-1-((4-methyl-7-((1R,4R)-5-methyl-2,5-diazabicyclo[2.2.2]octan-2-yl)phthalazin-1-yl)amino)ethyl)benzonitrile]	0.00039	0.019	–	–
Cc1ncccc1[C@@H](C)Nc1nnc(C)c2ccc(N3CCOCC3)cc12 [Example 10-72, (R)-4-methyl-N-(1-(2-methylpyridin-3-yl)ethyl)-7-morpholinophthalazin-1-amine]	0.0461	0.466	–	–
Cc1c(C#N)cccc1[C@@H](C)Nc1nnc(C)c2ccc(N3CC4(CCN(C)C4)C3)cc12 [Example 10-73, (R)-2-methyl-3-(1-((4-methyl-7-(6-methyl-2,6-diazaspiro[3.4]octan-2-yl)phthalazin-1-yl)amino)ethyl)benzonitrile formate salt]	–	–	0.00063	0.049
Cc1c(C#N)cccc1[C@@H](C)Nc1nnc(C)c2ccc(N3CC(C)(N(C)C)C3)cc12 [Example 10-74, (R)-3-(1-((7-(3-(dimethylamino)-3-methylazetidin-1-yl)-4-methylphthalazin-1-yl)amino)ethyl)-2-methylbenzonitrile Hydrochloride salt]	–	–	0.00426	0.065
Cc1c(C#N)cccc1[C@@H](C)Nc1nnc(C)c2ccc(N3CC(N(C)C)C3)cc12 [Example 10-75, (R)-3-(1-((7-(3-(dimethylamino)azetidin-1-yl)-4-methylphthalazin-1-yl)amino)ethyl)-2-methylbenzonitrile Hydrochloride salt]	–	–	0.00651	0.056
Cc1nnc(N[C@H](C)c2cccc(C(F)(F)F)c2F)c2cc(N3CC(N(C)C)C3)ccc12 [Example 10-76, (R)-7-(3-(dimethylamino)azetidin-1-yl)-N-(1-(2-fluoro-3-(trifluoromethyl)phenyl)ethyl)-4-methylphthalazin-1-amine]	0.00344	0.085	–	–
Cc1nnc(N[C@H](C)c2cccc(C(F)(F)F)c2F)c2cc(N3CCOCC3)ccc12 [Example 10-77, (R)-N-(1-(2-fluoro-3-(trifluoromethyl)phenyl)ethyl)-4-methyl-7-morpholinophthalazin-1-amine]	0.00075	0.102	–	–
Cc1nnc(N[C@H](C)c2cccc(C(F)(F)F)c2F)c2cc(N3CC(C)(N(C)C)C3)ccc12 [Example 10-78, (R)-7-(3-(dimethylamino)-3-methylazetidin-1-yl)-N-(1-(2-fluoro-3-(trifluoromethyl)phenyl)ethyl)-4-methylphthalazin-1-amine]	0.00116	0.114	–	–

Source: patent US11702418B2, “SOS1 inhibitors” (priority 2019, dated 2023)
